# From publication PMC9055962 (RSC Advances, 2020)
# Legend:
# S. aureus = conditions: cited from earlier work
# E. coli ATCC 25922 = assay: Broth microdilution MIC / MBC assay, E. coli; format: cell-based; conditions: Escherichia coli; for MIC: ATCC25922, 24 h, read-out: Antibacterial activity MIC; for MBC: ATCC25922, read-out: Antibacterial activity MBC
# S. aureus ATCC 25923 = assay: Broth microdilution MIC / MBC assay, S. aureus; format: cell-based; conditions: Staphylococcus aureus; for MIC: ATCC25923, 24 h, read-out: Antibacterial activity MIC; for MBC: ATCC25923, read-out: Antibacterial activity MBC
MIC (E. coli ATCC 25922),MIC (S. aureus ATCC 25923),Compound,minimum inhibitory concentration (MIC) (S. aureus),MBC (E. coli ATCC 25922),MBC (S. aureus ATCC 25923)
–,–,Fc-WRWRW,7 µM,–,–
–,–,WRWRWR,16 µM,–,–
> 1110 µM,> 1110 µM,"O=C(O)/C=C/c1ccc(O)c(O)c1 [CA, caffeic acid]",–,> 1110 µM,> 1110 µM
3 µM,383 µM,"CCn1cc(C(=O)O)c(=O)c2cc3c(cc21)OCO3 [OA, oxolinic acid]",–,6 µM,> 766 µM
